The results in this text go back to patent US8093030B2, “Thermostable viral polymerases and methods of use” (Lucigen Corporation, priority 2005, dated 2012).

Data set [1] deals with polymerase 3173 (SEQ ID NO:6) mutant D49A (uncultured virus, UniProt R4KMS7, D72A). The experiment in a line: Inhibition of 5' Rox-labeled primer extension by chain terminators (ABI 310 Genetic Analyzer). Type of data set: biochemical. To be noted: ddNTPs 50, 500 and 5000 μM each vs 50 μM each dNTP (up to 100-fold molar excess); 70° C., 30 minutes. As for the experimental part: (§1) In separate reactions, ddGTP, ddATP, ddTTP, and ddCTP were added to the above mix in concentrations of 50, 500 and 5000 μM each. Five units of polymerase 3173 mutant D49A were added and the reactions were incubated for 30 minutes at 70° C. Extension of the primer was detected by the ABI 310 Genetic Analyzer in Gene Scan mode.

In data set [2] the target is polymerase 3173 (SEQ ID NO:6) double mutant D49A/F418Y, SEQ ID NO:27 (uncultured virus, UniProt R4KMS7, D72A/F441Y). The experiment in a line: Fluorescent primer extension assay with ddGTP. Type of data set: biochemical. As for the experimental part: as §1
The polymerase 3173 double mutant D49A/F418Y was also tested in the fluorescent primer extension assay described above.

For data set [3], the system named is lacIq gene. The experiment in a line: Fidelity assay, lacIq amplification with blue/white colony count. To be noted: 25 PCR cycles; target size 349 for lacIq.
Protocol: Fidelity was determined by a modification of the standard assay in which the lacIq gene is amplified by the DNA polymerase of interest and inserted into a plasmid containing genes encoding a functional lacZ alpha peptide and a selectable marker. Primers of SEQ ID NOS:28 and 29 were used to amplify a sequence containing both the lacIq and the KanR gene. […] Normally a white phenotype is seen for clone containing this construct when plated on X-Gal. Mutation of the lacIq results in a blue phenotype for the colonies when plated on X-Gal.
For high fidelity PCR amplification, five units of the wild-type (proofreading) DNA polymerase 3173 (SEQ ID NO: 6) was tested using the following mix (50 mM Tris HCl (pH 9.0 at 25° C.), 50 mM KCl, 10 mM (NH4)2SO4, 1.5 mM MgSO4, 1.5 mM MgCl2, 0.1% triton-X100, 250 mM ectoine and 0.2 mM each of dGTP, dATP, dTTP and dCTP. Opposing primers of SEQ ID 28 and 29 (1 μM each) amplified the expected 2 k kb product from template SEQ ID 30 (10 ng). After thermal cycling (94° C. for 1 minute, 25 cycles of (94° C. for 15 seconds, 60° C. for 15 seconds, 72° C. for 2.5 minutes) and 72° C. 7 minutes), reaction products were quantified to determine “fold amplification,” (see below) using agarose gel electrophoresis. Both primers contain Eco109I sites. The PCR product was digested with Eco109I and inserted into the Eco109I site of pUC19. 10 G cells transformed by the construct were plated on LB plates containing ampicillin (100 μg/ml), kanamycin (30 μg/ml) and X-Gal (50 μg/ml). Blue and white colony counts were used for the fidelity determinations.
Data set [4] has as its system ROX-labeled 37 nt primer annealed to 41 nt template. The experiment in a line: Primer extension assay of heat-treated clone extracts (ABI 310 capillary electrophoresis). It counts as biochemical. To be noted: extract heated 70° C. 10 min; reaction 70° C. 10 minutes. As for the experimental part: 34 complete polymerase genes from the library described in Examples 3 and 4, as well as 24 additional viral genes from three other similarly prepared libraries, were constitutively expressed in the E. CLONI 10 G cells (Lucigen, Middleton, Wis.). The proteins were extracted, heated to 70° C. for 10 minutes and tested for DNA polymerase activity using a primer extension assay as follows.
A primer of 37 nucleotides having the sequence shown in SEQ ID NO:23, labeled on its 5′ end with ROX, was annealed to a template of 41 nucleotides having the sequence shown in SEQ ID NO:24. […] The reaction was incubated at 70° C. for 10 minutes. The reactions were analyzed using an ABI 310 Genetic Analyzer. […] Of the 58 clones tested, a total of ten clones expressed detectable DNA polymerase (DNAP) activity. The clone number and corresponding polynucleotide sequence, polypeptide sequence, sequence similarity and E (expect)-values for these polymerases are shown below in Table 1.

Chain of polymerase 3173 (SEQ ID NO:6) mutant D49A (R4KMS7 entry or part of it D72A): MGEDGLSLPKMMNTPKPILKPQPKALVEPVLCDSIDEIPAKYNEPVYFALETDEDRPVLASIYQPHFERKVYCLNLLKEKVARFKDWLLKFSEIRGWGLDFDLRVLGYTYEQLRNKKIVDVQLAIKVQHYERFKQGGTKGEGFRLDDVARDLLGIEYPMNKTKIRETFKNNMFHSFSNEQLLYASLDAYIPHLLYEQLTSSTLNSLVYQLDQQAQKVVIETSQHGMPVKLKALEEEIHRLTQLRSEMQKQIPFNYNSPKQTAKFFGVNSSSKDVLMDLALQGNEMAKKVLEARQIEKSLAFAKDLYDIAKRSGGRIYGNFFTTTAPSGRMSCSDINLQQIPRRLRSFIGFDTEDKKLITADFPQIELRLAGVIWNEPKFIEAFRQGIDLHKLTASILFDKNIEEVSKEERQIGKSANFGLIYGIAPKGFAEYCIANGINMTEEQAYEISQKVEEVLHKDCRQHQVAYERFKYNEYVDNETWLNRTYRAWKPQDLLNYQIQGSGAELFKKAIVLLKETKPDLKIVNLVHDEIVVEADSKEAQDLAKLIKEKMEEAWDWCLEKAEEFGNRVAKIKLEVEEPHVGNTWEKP
Chain of polymerase 3173 (SEQ ID NO:6) double mutant D49A/F418Y, SEQ ID NO:27 (R4KMS7 entry or part of it D72A/F441Y): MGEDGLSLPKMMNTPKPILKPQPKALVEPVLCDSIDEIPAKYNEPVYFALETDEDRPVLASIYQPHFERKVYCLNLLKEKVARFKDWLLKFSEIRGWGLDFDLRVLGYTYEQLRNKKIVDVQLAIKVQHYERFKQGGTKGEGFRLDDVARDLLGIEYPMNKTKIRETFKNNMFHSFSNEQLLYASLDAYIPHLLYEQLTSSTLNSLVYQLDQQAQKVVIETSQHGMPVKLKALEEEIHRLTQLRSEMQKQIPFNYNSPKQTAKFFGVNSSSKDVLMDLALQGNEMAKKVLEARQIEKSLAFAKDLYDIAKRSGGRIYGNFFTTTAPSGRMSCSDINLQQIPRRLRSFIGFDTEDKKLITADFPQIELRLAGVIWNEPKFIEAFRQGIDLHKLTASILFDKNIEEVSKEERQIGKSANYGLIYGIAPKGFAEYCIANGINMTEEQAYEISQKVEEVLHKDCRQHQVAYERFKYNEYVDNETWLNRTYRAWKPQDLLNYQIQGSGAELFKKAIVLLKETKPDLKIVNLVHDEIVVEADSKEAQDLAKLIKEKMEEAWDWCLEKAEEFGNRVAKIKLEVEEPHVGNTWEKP

As to `Nc1ncnc2c1ncn2[C@H]1CC[C@@H](COP(=O)(O)OP(=O)(O)OP(=O)(O)O)O1` [ddATP], the “inhibition of primer extension” value in data set [1] is “no inhibition of primer extension was detected”.

Turning to `Nc1ccn([C@H]2CC[C@@H](COP(=O)(O)OP(=O)(O)OP(=O)(O)O)O2)c(=O)n1` [ddCTP], in data set [1], the “inhibition of primer extension” value was “no inhibition of primer extension was detected”. Turning to `Nc1nc2c(ncn2[C@H]2CC[C@@H](COP(=O)(O)OP(=O)(O)OP(=O)(O)O)O2)c(=O)[nH]1` [ddGTP], the “inhibition of primer extension” value in data set [1] is “no inhibition of primer extension was detected”; in data set [2] (0.2× ratio of ddGTP:dGTP), “nearly complete inhibition of primer extension, with no extension continuing beyond the fourth G residue”; in data set [2] (2× ratio of ddGTP:dGTP), “almost completely inhibited any extension”. In the case of `Cc1cn([C@H]2CC[C@@H](COP(=O)(O)OP(=O)(O)OP(=O)(O)O)O2)c(=O)[nH]c1=O` [ddTTP], in data set [1], the “inhibition of primer extension” value was “no inhibition of primer extension was detected”.

On to “Taq: standard commercial DNA polymerase (Lucigen) used for comparison [reference compound]”, for which the Fidelity in data set [3] was 9.76E+03.

B1: Clone 967: thermostable viral DNA polymerase clone, polypeptide SEQ ID NO: 14 (protein)
chain: MQKEIPFNYNSPKQTAKLFGIDSSSKDVLMDLALRGNEVAKKVLEARQIEKSLAFAKDLYDIAKKNGGRIHGNFFTTTAPSGRMSCSDINLQQIPRRLRQFIGFETEDKKLITADFPQIELRLAGVMWNEPEFLKAFRDGIDLHKLTASILFDKKINEVSKEERQIGKSANFGLIYGISPKGFAEYCISNGINITEEMAIEIVKKWKKFYRKIAEQHQLAYERFKYAEFVDNETWLNRPYRAYKPQDLLNYQIQGSGAELFKKAIILLKETKPDLKLVNLVHDEIVVETSTEEAEDIALLVKQKMEEAWDYCLEKAKEFGNNVADIKLEVEKPNISSVWEKE
modifications: Uncultured newly isolated virus
On to B1, for which the “Exo (exonuclease activity, either 3′-5′ or 5′-3′)” value (shortened to “Exo”) in data set [4] is “No”.

B2: Clone 488: thermostable viral DNA polymerase clone, polypeptide SEQ ID NO: 4 (protein)
chain: AVGTWITTLQKLGFTYEELEDKEVLDLLSIARLVLPERFKENGFSLDVVLKEVLGIDYKFDKKTIRKTFTPLLMTQEQLEYIASDVIYLPALKEKLDEKFNKRLWLPYILDMEATKILAEVSNNGMPFLKEKAKEELSRLSKELEGLRKELGFNPNSPKETQKVLNTPDTSEATLMKLIISNSSKKAIAEKVIQARKIQKVIAMINKYLNYDRVKGTFWTTTAPSGRMSCDKENLQQIPRSIRYLFGFDENSDKTLVIADYPQIELRLAGVLWKEPKFIQAFNEGKDLHKQTASIIYGIPYEEVNKEQRQIAKSANFGLIYGMSVEGFANYCIKNGIPMDTQTAQHIVNSFFNFYGKIAEKHKEGNLIIQSQGIAEGYTWLGRRYIAQRLNDYLNYQIQGSGAELLKKAVMEIKSKYPYIKIVNLVHDEIVVEAYKDDAQDIARIIKQEMENAWEWCIQEAQKLGVDLTPVKLECENPTISNVWEK
modifications: Uncultured newly isolated virus
For the molecule B2, the “Exo” value in data set [4] is “No”.

B3: Clone 4110: thermostable viral DNA polymerase clone, polypeptide SEQ ID NO: 8 (protein)
chain: MGLDQILDMSYFVDSGATMLKLILRGSGGKNVVTVPAPFNPYFFIKKRDLDRAQSILPDYARVEDADAITAEGERVVKISVPTPPLVRVVREKLHEEGIESYEADIPYTRRVMIDLDLKVAYPETVAAFDIEVDATKGFPDINNPQSRVLSISVYDGSEEIFLCSDDEIEMFKEFNKLLRKYDVLIGWNSAAFDYPYLVERAKVLGYYVDEEMFQHVDIFGIFQTYFKREMSDFKLKTVALKVLGSKVPLGALLDFERPGDIRKLTEFFEKRRDLLKLYNMDQTKAIWMINSESGVLQTYITQARLANIIPWHRVSPRTDSSQEYISYNNDCRDLVLKKALAHKPRIVFPSKKNGENEDWDEDAKESTYTGAIVFNPIPGLWENVVLLDFASMYPRVIMTFNISYDTWTPNPGENDILAPHGGFITSREGFLPTVLRELEGYRSLAKKMVDAYEPGDPMRVIWNARQFAFKLILVSAYGVAGFRHSRLYRVEIAESITGYTRDAIMKAREVIERHGWRVLYGDTDSLFLYNPKITSVEKASEVASSELLPAINSFIRDYVVERWRVPRSRVVLEFKVDRVYSKLKLLSVKKRYYGLVAWEERMLEQPYIQIKGLEARRGDWPDLVKEIQSEVIKLYLLEGPIAVDRYLKEMKRKLLSGEIPLEKLVIKKHLNKRLDEYKHNAPHYRAARKLLEMRFPVRTGDRIEFIYLDDKVIPMVPGLKLSEVDLKKWWRKYVVPVVERLEIESRGS
modifications: Uncultured newly isolated virus
In the case of B3, the “Exo” value in data set [4] was “No”.
